The source of these data is ChEMBL document CHEMBL1201862, “PubChem BioAssay data set” (2004).

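Interpolation was linear, between the two tested concentrations surrounding the appropriate level; five concentrations were tested over 48 hours in 96-well plates. Abbreviation: GI50, concentration required for 50% inhibition of growth.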 Activity calls are given as the source filed them. No stated cut-off is given here; in the data, active = GI50 up to about 1.1 µM and inactive = higher.

Test systems include MDA-MB-231; PC-3; 786-0; T47D; M19-MEL; DLD-1; DMS-273; XF498; RXF 631.
What all share (assay): NCI tumour cell line growth inhibition, 48 h

As for `CC(=O)O[C@H]1CC[C@@]2(C)C(=CC[C@@H]3[C@@H]2CC[C@]2(C)C(=O)/C(=C\c4ccccc4)C[C@@H]32)C1`, the GI50 is > 100 µM (inactive) in the assay with MDA-MB-231, 64.7 µM (inactive) with PC-3, > 100 µM (inactive) in the assay on 786-0 and > 100 µM (inactive) in the assay on T47D.
`COc1cccc2c1C(=O)c1c(O)c3c(c(O)c1C2=O)C[C@@](O)(C(C)=O)C[C@@H]3OC1CC(O)C(O)C(C)O1` (stereo partly specified): the GI50 in the assay on M19-MEL was 1.6 µM (inactive); in the assay with MDA-MB-231 it was 8.65 µM (inactive); in the assay with DLD-1, 1.46 µM (inactive); in the assay on PC-3, 4.95 µM (inactive); in the assay with 786-0, 1.57 µM (inactive); in the assay with T47D it was 2.82 µM (inactive). For the same molecule, in the assay with DMS-273, the GI50 was 0.253 µM (active).
`NCc1ccc(O)c(O)c1`: the GI50 in the assay on MDA-MB-231, with PC-3, with 786-0 and in the assay on T47D was > 100 µM (inactive) in each case.
As for `Clc1ccccc1/C=C/c1cscn1`, the GI50 in the assay on M19-MEL, in the assay on DLD-1 and with XF498 was > 100 µM (inactive) throughout.
For `C=C[C@@H]1C(CO)=CCC2[C@H]1CCC1C(C)(C)C(=O)CC[C@]21C` (stereo partly specified), the GI50 in the assay on PC-3, with 786-0 and in the assay with T47D was > 100 µM (inactive) throughout.
On to `COc1cc(/N=N\c2ccc(OC)c(S(=O)(=O)O)c2)c(C)cc1/N=N\c1ccc(/C=C/c2ccc(/N=[N+](/[O-])c3ccc(/C=C/c4ccc(/N=N/c5cc(C)c(/N=N\c6ccc(OC)c(S(=O)(=O)O)c6)cc5OC)cc4S(=O)(=O)O)c(S(=O)(=O)O)c3)cc2S(=O)(=O)O)c(S(=O)(=O)O)c1`, for which the GI50 was > 100 µM (inactive) in the assay on M19-MEL, > 100 µM (inactive) in the assay on DLD-1, > 100 µM (inactive) in the assay on XF498 and > 68.1 µM (inactive) in the assay with DMS-273.
As to `CC1=CC[C@H](C)C(C)(C)C1/C=C/C(C)=C/CC[C@@]1(CO)[C@H](CCCO)/C(=C(/C)C=O)CC[C@]1(C)O` (stereo partly specified), the GI50 was 17.2 µM (inactive) in the assay with M19-MEL, 3.53 µM (inactive) in the assay on DLD-1, 7.41 µM (inactive) with XF498 and 2.2 µM (inactive) with DMS-273.
In the case of `O=C(c1ccccc1)C1C(c2ccccc2)N1S(=O)(=O)c1ccccc1` (stereo unspecified), the GI50 with MDA-MB-231, in the assay with PC-3 and with T47D was > 100 µM (inactive) each time.
As to `Brc1ccccc1-c1ncc(-c2ccccc2)o1`, the GI50 was 38 µM (inactive) in the assay with MDA-MB-231, 34.2 µM (inactive) in the assay with PC-3 and 9.29 µM (inactive) in the assay on T47D.
For `Nc1nnc2ccc(Cl)cc2[n+]1[O-]`, the GI50 in the assay on MDA-MB-231 was 37.9 µM (inactive); in the assay with PC-3, > 100 µM (inactive); in the assay with T47D it was 44.9 µM (inactive).
The corresponding values for `Cc1ccc(NC(=O)S(N)(c2ccc(C)cc2)[N+](=O)[O-])cc1` (stereo unspecified) are > 100 µM (inactive), > 100 µM (inactive) and 38 µM (inactive).
As to `CCOC(=O)C1Cc2c(cc3c4c(cccc24)N(C(C)=O)C3)N(C)C1` (stereo unspecified), the GI50 is 1.4 µM (inactive) in the assay on MDA-MB-231, 4.02 µM (inactive) in the assay on PC-3, 4.03 µM (inactive) in the assay on 786-0 and 5.58 µM (inactive) in the assay on T47D.
Take `O=C1[C@@H]2C(c3c(Cl)cccc3Cl)=NO[C@@H]2C(=O)N1c1ccc(Cc2ccc(N3C(=O)[C@H]4C(c5c(Cl)cccc5Cl)=NO[C@H]4C3=O)cc2)cc1`: the GI50 with M19-MEL, in the assay with DLD-1, with XF498, in the assay with 786-0 and with DMS-273 was > 100 µM (inactive) each time.
As for `O=C(O)C1CCC(=O)N1C(=O)COc1cc(Cl)c(Cl)cc1Cl` (stereo unspecified), the GI50 with RXF 631, in the assay with M19-MEL, in the assay on XF498 and in the assay with DMS-273 was > 100 µM (inactive) throughout.
On to `N#Cc1ccccc1NC(=O)C(=O)C(C(=O)c1ccccc1F)C1OC(=O)c2ccccc21` (stereo unspecified), for which the GI50 in the assay on M19-MEL is 29.7 µM (inactive); with DLD-1, 46.8 µM (inactive); in the assay on XF498, 84.7 µM (inactive); in the assay on DMS-273, 30.8 µM (inactive).
In the case of `Cn1c2n/c(=N\c3ccc(Cl)cc3)[n+]3ccc4ccccc4c3c-2c([O-])n1-c1ccccc1`, the GI50 with MDA-MB-231, with PC-3, in the assay on 786-0 and with T47D was > 100 µM (inactive) throughout.
As to `CCOC(=O)C(C(=O)OCC)c1cc(-c2cc3ccccc3o2)oc(=O)c1C#N`, the GI50 is 19 µM (inactive) with XF498 and 25.9 µM (inactive) in the assay with DMS-273.
With `CC(C)=CCC(OC(=O)C=C(C)C)c1cc(O)c2c(c1O)C(=O)C=CC2=O` (stereo unspecified), the GI50 in the assay with M19-MEL was 0.621 µM (active); with DLD-1, 0.279 µM (active); in the assay on XF498 it was 0.809 µM (active); in the assay on DMS-273, 1.98 µM (inactive).
As for `Cc1oc2c(c1C)S(=O)(=O)C(C#N)=CN2`, the GI50 with MDA-MB-231, in the assay on PC-3, in the assay on 786-0 and in the assay on T47D was > 100 µM (inactive) in each case.
With `CC(C)CC(N)C(=O)OCN1C(=O)C2C3C=CC(C2C1=O)C1C2C(=O)N(COC(=O)C(N)CC(C)C)C(=O)C2C31` (stereo unspecified), the GI50 is > 100 µM (inactive) with RXF 631, > 86.7 µM (inactive) with DLD-1, > 100 µM (inactive) in the assay with 786-0 and 97.3 µM (inactive) with DMS-273.
